According to US11123439B2, “Antibody drug conjugates (ADCS) and antibody prodrug conjugates (APDCS) with enzymatically cleavable groups” (Bayer Pharma Aktiengesellschaft, priority 2015, dated 2021):

Target: T1, legumain (Homo sapiens, UniProt Q99538)
T1 construct: purchased R&D Systems 2199-CY
T1 sequence (Q99538 18-323 limits assumed): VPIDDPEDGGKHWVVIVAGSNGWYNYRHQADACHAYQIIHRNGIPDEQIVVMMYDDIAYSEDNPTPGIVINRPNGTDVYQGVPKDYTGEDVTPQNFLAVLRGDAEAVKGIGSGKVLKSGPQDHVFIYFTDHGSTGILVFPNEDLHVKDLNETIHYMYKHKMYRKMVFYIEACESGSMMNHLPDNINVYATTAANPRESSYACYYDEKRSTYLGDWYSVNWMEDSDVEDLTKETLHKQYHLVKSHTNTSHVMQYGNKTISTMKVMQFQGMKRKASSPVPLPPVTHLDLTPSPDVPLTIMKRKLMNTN
Experiment: Legumain assay (enzymatic cleavage of prodrug)
Assay type: biochemical
Details: recombinant human legumain, rh legumain 1 ng/μl, 50 mM MES buffer, 250 mM NaCl, pH 5.0, read-out: half-life of legumain cleavage to the target compound (converted)
Method: The legumain assay was conducted with recombinant human enzyme. The rh legumain enzyme solution (catalogue #2199-CY, R&D Systems) was diluted to the desired concentration in 50 mM Na acetate buffer/100 mM NaCl, pH4.0 and preincubated at 37° C. for 2 h. rh legumain was then adjusted to a final concentration of 1 ng/μl in 50 mM MES buffer, 250 mM NaCl, pH 5.0. For every legumain-cleavable prodrug to be examined, a mixture was made up in a micro reaction vessel (0.5 ml, from Eppendorf). For this purpose, the substrate solution was adjusted to the desired concentration (double concentration) with 50 mM MES buffer, 250 mM NaCl, pH 5.0. For the kinetic measurement of the enzymatic reaction, 250 μl of the legumain solution were first initially charged and the enzyme reaction was started by adding 250 μl of the substrate solution (final concentration: single concentration). At different times, 50 μL samples were taken. This sample was admixed immediately with 100 μl of ice-cold methanol in order to stop the enzymatic reaction and then frozen at −20° C. The times selected for sampling were after 0.5 h, 1 h, 3 h and 24 h. The samples were then analysed by means of RP-HPLC analysis and by LC-MS analysis. The determination of the toxophore released enabled the determination of the half-life t1/2 of the enzymatic reaction. […]

SMILES: CNC(=O)[C@H](CCN(C(=O)CO)[C@@H](c1cc(-c2cc(F)ccc2F)cn1Cc1ccccc1)C(C)(C)C)NC(=O)[C@H](CC(N)=O)NC(=O)[C@H](C)NC(=O)[C@H](C)NC(=O)Cc1ccncc1 [Compound A, N-(Pyridin-4-ylacetyl)-L-alanyl-L-alanyl-N^1-[(2S)-4-[{(1R)-1-[1-benzyl-4-(2,5-difluorophenyl)-1H-pyrrol-2-yl]-2,2-dimethylpropyl}(glycoloyl)amino]-1-(methylamino)-1-oxobutan-2-yl]-L-aspartamide]
- half-life: 1.1 h
